Data published in US9908896B2, “P38 and JNK MAPK inhibitors for the treatment and prophylaxis of degenerative diseases of the nervous system” (ALLINKY BIOPHARMA, priority 2014, dated 2018).

Key:
[1] = molecular target: T1, recombinant activated p38alpha (Homo sapiens, UniProt Q16539); test: in vitro kinase assay p38 (ADP-Glo); assay type: biochemical; conditions: 100 μM ATP; for inhibition at 1 µM: 1 μM compound; for inhibition at 10 µM: 10 μM compound
T1 construct: purchased ProQinase
Procedure: (§1) Purified recombinant activated p38alpha (10 nM)(ProQinase) was preincubated 10 minutes at 30° C. with the compound of interest at concentrations between 1 and 100 μM in duplicate in a final volume of 30 μl of kinase buffer (Hepes 60 mM pH 7.5, MgCl2 3 mM, MnCl2 3 mM, sodium orthovanadate 3 μM, DTT 1.2 mM). After preincubation, peptide substrate (SignalChem #P03-58) and ATP were added to a final concentration of 10 μM and 100 μM respectively, and then incubated 40 minutes at 30° C. for the kinase reaction. Phosphorylation was analysed with ADP-Glo™ (Promega #V9101) and emitted luminescence was measured with BMG Fluostar microplate reader.

[2] = system: recombinant activated JNK; test: in vitro kinase assay JNK (ADP-Glo); assay type: biochemical; conditions: 100 μM ATP; for % of inhibition at 1 μM, JNK: 1 μM compound; for % of inhibition at 10 μM, JNK: 10 μM compound
Procedure: as §1, with “JNK” for “p38alpha”, “nM) (ProQinase)” for “nM)(ProQinase)”, “analyzed” for “analysed”

[3] = system: TNF-α secretion by a human monocytic cell line, THP-1; test: Inhibition of TNF-α secretion by LPS-stimulated THP-1 cells (ELISA); assay type: cell-based; conditions: LPS-stimulated THP-1, TNF-α; for inhibition at 1 µM: 1 μM compound, read-out: % of inhibition at 1 μM, THP1; for inhibition at 10 µM: 10 μM compound, read-out: % of inhibition at 10 μM, THP1
Procedure: Thp1-Inhibition of TNF-α Secretion by a Human Monocytic Cell Line, THP-1
THP-1 cells, growing in log phase, were collected by centrifugation and resuspended in RPMI 1640 (Sigma Aldrich), to a final cell concentration of 2×10^6 cells/ml. Cells were plated into 24-well plates (BD Biosciences). Dilutions of compounds in dimethyl sulfoxide (DMSO) were added to the culture to a final concentration M. The final DMSO concentration was 0.5%. The cells […] suspensions were preincubated with compounds for 1 h at 37° C. in a 5% CO2 humidified atmosphere before the addition of LPS (Sigma Aldrich, L2654) to a g/ml. After that, cells were incubated for 3 h followed final concentration of […] by centrifugation to pellet cells. Cell supernatants were stored at 4° C. until human analysis for TNF-α content. TNF-α levels were determined by ELISA (TNF Biotrak, GE Healthcare) following the manufacturer's directions. The percentage inhibition was calculated for each compound concentration tested, and the IC50 was calculated for each compound.

T1 sequence (Q16539 whole entry): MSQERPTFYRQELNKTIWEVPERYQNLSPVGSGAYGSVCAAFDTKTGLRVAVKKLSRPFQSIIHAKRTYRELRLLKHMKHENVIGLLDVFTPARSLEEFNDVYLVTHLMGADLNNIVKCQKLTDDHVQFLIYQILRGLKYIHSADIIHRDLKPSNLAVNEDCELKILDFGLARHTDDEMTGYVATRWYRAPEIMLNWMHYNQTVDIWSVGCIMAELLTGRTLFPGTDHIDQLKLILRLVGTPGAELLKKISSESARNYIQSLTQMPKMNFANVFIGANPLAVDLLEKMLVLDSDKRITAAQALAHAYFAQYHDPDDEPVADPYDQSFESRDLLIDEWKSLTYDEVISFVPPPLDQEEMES

| Compound | inhibition at 1 µM [1] | inhibition at 10 µM [1] | % of inhibition at 1 μM, JNK [2] | % of inhibition at 10 μM, JNK [2] | inhibition at 1 µM [3] | inhibition at 10 µM [3] |
| --- | --- | --- | --- | --- | --- | --- |
| CCOc1cccc(Nc2nc3nonc3nc2N2CCC(Sc3ccc(C)cc3)CC2)c1 [Comp 8] | 16% | 64% | 32% | 55% | 17% | 37% |
| Clc1ccc(OC2CCN(c3nc4nonc4nc3Nc3ccc4occc4c3)CC2)cc1 [Comp 12] | 15% | 95% | 24% | 90% | 45% | 51% |
| Clc1ccc(OC2CCN(c3nc4nonc4nc3Nc3ccc4c(c3)CCO4)CC2)cc1 [Comp 11] | 21% | 105% | 24% | 74% | 30% | 50% |
| CCCOc1ccc(Nc2nc3nonc3nc2N2CCC(Sc3ccc(C)cc3)CC2)cc1 [Comp 5] | 41% | 100% | 37% | 97% | 44% | 65% |
| CCCOc1cccc(Nc2nc3nonc3nc2N2CCC(Oc3ccc(Cl)cc3)CC2)c1 [Comp 3] | 23% | 100% | 31% | 96% | 37% | 58% |
| CCCOc1cccc(Nc2nc3nonc3nc2N2CCC(Sc3ccc(C)cc3)CC2)c1 [Comp 7] | 19% | 87% | 34% | 101% | 21% | 33% |

Second part, led by results:

| inhibition at 1 µM [1] | inhibition at 10 µM [1] | % of inhibition at 1 μM, JNK [2] | % of inhibition at 10 μM, JNK [2] | Compound | inhibition at 1 µM [3] | inhibition at 10 µM [3] |
| --- | --- | --- | --- | --- | --- | --- |
| 41% | 87% | 36% | 91% | CCOc1ccc(Nc2nc3nonc3nc2N2CCC(Oc3ccc(Cl)cc3)CC2)cc1 [Comp 2] | 42% | 69% |
| 25% | 52% | 30% | 50% | CCOc1ccc(Nc2nc3nonc3nc2N2CCN(Cc3ccc(Cl)cc3)CC2)cc1 [Comp 10] | 19% | 31% |
| 32% | 95% | 35% | 91% | CCOc1ccc(Nc2nc3nonc3nc2N2CCC(Sc3ccc(C)cc3)CC2)cc1 [Comp 6] | 28% | 39% |
| 23% | 68% | 26% | 51% | CCCOc1ccc(Nc2nc3nonc3nc2N2CCN(Cc3ccc(Cl)cc3)CC2)cc1 [Comp 9] | 27% | 39% |
| 25% | 68% | 31% | 74% | CCOc1cccc(Nc2nc3nonc3nc2N2CCC(Oc3ccc(Cl)cc3)CC2)c1 [Comp 4] | 19% | 41% |
